The record followed here is patent publication US20090280169A1, “Compositions of peptides and processes of preparation thereof” (Merrion Research III Limited, priority 2008, published 2009).

“Also recorded” adds a separate entry of the source. Non-standard residues stand in square brackets, D forms with d. Residues, ends and D or L forms follow the SMILES beside them. dPhe(4-NH2) = Nc1ccc(C[C@@H](N)C(=O)O)cc1; dPhe(4-Cl) = N[C@H](Cc1ccc(Cl)cc1)C(=O)O; Phe(4-NH2) = Nc1ccc(C[C@H](N)C(=O)O)cc1; d2Nal = N[C@H](Cc1ccc2ccccc2c1)C(=O)O; Lys(iPr) = CC(C)NCCCC[C@H](N)C(=O)O; d3Pal = N[C@H](Cc1cccnc1)C(=O)O

This series can be described thus: Gelation of acyline in pH 6.8 buffer with sodium caprate and Tween 80 (filtration, HPLC). The format is physicochemical. Here is the method: Different concentrations of acyline composition are prepared by adding acyline to pH 6.8 buffer solution either at room temperature or 37° C. All acyline solutions contain 0.6 mg/mL sodium caprate (sodium caprate is referred as C10 in the figures). All samples are centrifuged and filtered prior to analysis. Samples are analyzed by reverse phase HPLC with UV detection. 10 mg acyline is transferred into […] volumetric flask. A pH 6.8 buffer solution is preheated to 37° C. Then, 100 mL pre-heated buffer solution and 0.6 mg/mL sodium caprate is added to the flask to prepare a 0.1 mg/mL acyline sample. In a similar manner, Tween 80 is added to prepare a 0.1 mg/mL acyline solution with 1% Tween 80. Samples are shaken in a temperature controlled water bath at 37° C. 5 mL samples are taken at 1, 5, 10, 15, 20, 30 and 120 minutes after mixing acyline with the buffer solution. Samples are filtered immediately through 0.45 μm filters and the first 3 mL is discarded. Filtered samples are analyzed, undiluted, by reverse phase HPLC with UV detection. All samples are prepared in duplicate and the concentration was obtained for the analysis from the mean of the duplicates. The result of comparison of 1% and 0% Tween 80 at 0.1 mg/mL acyline sample is graphically recorded in FIG. 5. […] A similar experimental procedure as Example 4 is used to prepare acyline sample for example 5. The result of comparison of 5 mg/mL, 1.0 mg/mL, 0.1 mg/mL, and 0.1% Tween in phosphate buffer containing 0.6 mg/mL of sodium caprate and 0.1 mg/mL acyline is graphically recorded in FIG. 6. […] A similar experimental procedure as Example 4 is used to prepare acyline sample for example 6. The result of comparison of 1% and 1 mg/mL Tween 80 in 0.1 and 0.01 mg/mL acyline sample is graphically recorded in FIG. 7. […] A similar experimental procedure as Example 4 is used to prepare acyline sample for example 7. The result of comparison of 0.01 mg/mL acyline samples having 0.1%, 0.5% and 1% Tween 80 is graphically recorded in FIG. 8.

Consider `CC(=O)Nc1ccc(C[C@H](NC(=O)[C@H](CO)NC(=O)[C@@H](Cc2cccnc2)NC(=O)[C@@H](Cc2ccc(Cl)cc2)NC(=O)[C@@H](Cc2ccc3ccccc3c2)NC(C)=O)C(=O)N[C@H](Cc2ccc(NC(C)=O)cc2)C(=O)N[C@@H](CC(C)C)C(=O)N[C@@H](CCCCNC(C)C)C(=O)N2CCC[C@H]2C(=O)N[C@H](C)C(N)=O)cc1` [acyline, Ac-D2Nal-D4Cpa-D3Pal-Ser4Aph(Ac)-D4Aph(Ac)-Leu-ILys-Pro-DAla-NH2] (Ac-[d2Nal][dPhe(4-Cl)][d3Pal]S[Phe(4-NH2)](Ac)[dPhe(4-NH2)](Ac)L[Lys(iPr)]P[dA]-NH2), for which the gelation of acyline entry reads like this: (0.01 mg/mL acyline, 0.6 mg/mL sodium caprate, 1% Tween 80) “significantly reduces the gelation”; (0.1 mg/mL acyline, 0.6 mg/mL sodium caprate, 1% Tween 80) “successfully reduces the gelation; also recorded: completely inhibit the gelation”; (0.1 mg/mL acyline, 37° C., 0.6 mg/mL sodium caprate alone (0% Tween 80)) “insufficient to reduce the gelation”.
